The target of the first assay is T1, Pin1 (Homo sapiens, UniProt Q13526).
T1 construct: endogenous in cells; host or cells: 293T cells
T1 sequence (Q13526 whole entry): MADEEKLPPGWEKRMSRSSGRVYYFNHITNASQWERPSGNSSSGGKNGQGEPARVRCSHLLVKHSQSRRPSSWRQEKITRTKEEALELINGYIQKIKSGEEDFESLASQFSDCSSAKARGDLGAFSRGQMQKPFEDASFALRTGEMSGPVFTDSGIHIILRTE
The assay is described as follows: Evaluation of inhibitory activity on function of Pin1: cell assay using degree of AMPK phosphorylation as index. The format is cell-based. Details: key to Pin1 inhibitory activity: −: Promotion of AMPK phosphorylation was not (or hardly) found.; +: Phosphorylation of AMPK was promoted, but the promotion was weaker than that by C1.; ++: Phosphorylation of AMPK was promoted to the same degree as in the case of C1.; +++: Phosphorylation of AMPK was promoted more strongly than in the case of C1. The note with it: 293T cells, compound 100 μM, 10 mM 2-DG, pAMPK immunoblot rated by comparison with C1. How it is done:
In order to evaluate the inhibitory activities of the compounds of the present invention synthesized in Example 2 on the function of Pin1, an assay using cells was carried out according to a method previously developed by the present inventors (Yusuke Nakatsu et al., Journal of Biological Chemistry, 2015, Vol. 290, No. 40, pp. 24255-24266), using as an index the degree of phosphorylation of AMPK (AMP-activated protein kinase), whose phosphorylation is known to be suppressed by Pin1.
Briefly, 293T cells were plated on a 24-well plate coated with collagen. Forty-eight hours later, each compound (100 μM) synthesized in the Example was added to the plate, and the plate was left to stand in an incubator for 30 minutes. Thereafter, 10 mM 2-DG was added to the plate, and, 1 hour later, each sample was collected using a buffer containing mercaptoethanol and SDS.
According to conventional methods, SDS-PAGE and blotting were carried out, and then blocking was carried out with 3% BSA for 1 hour. Thereafter, reaction was carried out at normal temperature for 1 hour with each of a pAMPK antibody (Cell signaling 1:2000, Can get signal solution 1: diluted by Toyobo) as a primary antibody, and an HRP-linked anti rabbit IgG (GE healthcare 1:4000, Can get signal solution 2: diluted by Toyobo) as a secondary antibody, to perform detection.
As a compound to be compared, C1: (R)-2-(5-(4-methoxyphenyl)-2-methylfuran-3-carboxamido)-3-(naphthalene-6-yl)propanoic acid, which is an already reported Pin1 inhibitor, was used.
In FIG. 3, “-” indicates the degree of phosphorylation of AMPK in a case where no Pin1 inhibitor was added, and “C1”, “H-30”, “H-31”, “H-32”, and “H-33” indicate the degrees of phosphorylation of AMPK in cases where the respective Pin1 inhibitors were added. […] The inhibitory activity on the function of Pin1 was rated as follows based on comparison with the degree of inhibition by C1.
(A western blot detects proteins with antibodies after separation by electrophoresis.)
As for `O=C(O[C@H](Cc1ccc2ccccc2c1)C(=O)OCc1ccccc1)c1ccc2ccccc2c1` [Compound H-21], the Pin1 inhibitory activity result is “−”. Consider `O=C(O[C@H](Cc1ccc2ccccc2c1)C(=O)O)c1ccc(C(O)c2ccccc2)cc1` (stereo partly shown) [Compound H-23], for which the Pin1 inhibitory activity result was “++”. In the case of `O=C(O[C@H](Cc1ccc2ccccc2c1)C(=O)O)c1ccc2ccccc2c1` [Compound H-30], the Pin1 inhibitory activity entry is recorded as “++”. On the same count and under the same terms, the same measure for `COc1ccc(-c2cc(C(=O)O[C@H](Cc3ccc4ccccc4c3)C(=O)O)c(C)o2)cc1` [Compound H-32]: “+”.

Regarding `O=C(O[C@H](Cc1ccc2ccccc2c1)C(=O)O)c1ccc(-c2ccccc2)cc1` [Compound H-33], the Pin1 inhibitory activity entry is recorded as “+”.

Regarding `O=C(CC1c2ccccc2-c2ccccc21)O[C@H](Cc1ccc2ccccc2c1)C(=O)O` [Compound H-106], the Pin1 inhibitory activity entry is given as “++”. Turning to `O=C(O[C@H](Cc1ccc2ccccc2c1)C(=O)O)c1ccc(Oc2ccccc2)cc1` [Compound H-123], the Pin1 inhibitory activity result is on record as “++”.

On to `O=C(O[C@H](Cc1ccc2ccccc2c1)C(=O)O)c1cccc(Oc2ccccc2)c1` [Compound H-130], for which the Pin1 inhibitory activity result is on record as “++”. On the same count and under the same terms, with `O=C(O[C@H](Cc1ccc2ccccc2c1)C(=O)O)c1ccccc1Oc1ccccc1` [Compound H-132] the entry was “+”; with `O=C(O[C@H](Cc1ccc2ccccc2c1)C(=O)O)C(c1ccccc1)c1ccccc1` [Compound H-134], “++”; with `O=C(O[C@@H](Cc1ccc2ccccc2c1)C(=O)O)C1c2ccccc2-c2ccccc21` [Compound H-141], “+++”.

Consider `O=C(Cc1ccc2ccccc2c1)O[C@H](Cc1ccc2ccccc2c1)C(=O)O` [Compound H-149], for which the Pin1 inhibitory activity entry is listed as “+”.

In the case of `O=C(Cc1cccc2ccccc12)O[C@H](Cc1ccc2ccccc2c1)C(=O)O` [Compound H-151], the Pin1 inhibitory activity result is listed as “++”. On the same count and under the same terms, the same measure for `O=C(O)[C@@H](Cc1ccc2ccccc2c1)OC(=O)N1c2ccccc2Oc2ccccc21` [Compound H-157]: “++”; for `O=C(O)[C@@H](Cc1ccc2ccccc2c1)OC(=O)n1c2ccccc2c2ccccc21` [Compound H-175]: “+++”. Regarding `O=C(COc1ccccc1)O[C@H](Cc1ccc2ccccc2c1)C(=O)O` [Compound H-176], the Pin1 inhibitory activity result was “++”. Take `O=C(COc1ccc2ccccc2c1)O[C@H](Cc1ccc2ccccc2c1)C(=O)O` [Compound H-177]: the Pin1 inhibitory activity entry was “++”. The same measure, in the same setting: with `O=C(COc1cccc2ccccc12)O[C@H](Cc1ccc2ccccc2c1)C(=O)O` [Compound H-179] the entry was “+++”; with `O=C(Cc1c[nH]c2ccccc12)O[C@H](Cc1ccc2ccccc2c1)C(=O)O` [Compound H-180], “++”; with `COc1cc(OC)cc(C(=O)O[C@H](Cc2ccc3ccccc3c2)C(=O)O)c1` [Compound H-198], “+”.

For the molecule `O=C(O[C@H](Cc1ccc2ccccc2c1)C(=O)O)c1cc(Cl)cc(Cl)c1` [Compound H-200], the Pin1 inhibitory activity result is recorded as “+”. For the molecule `Cc1cc(C)cc(C(=O)O[C@H](Cc2ccc3ccccc3c2)C(=O)O)c1` [Compound H-210], the Pin1 inhibitory activity entry is reported as “+”. On to `CC(C)(C)OC(=O)N[C@@H](Cc1ccccc1)C(=O)O[C@H](Cc1ccc2ccccc2c1)C(=O)O` [Compound H-248], for which the Pin1 inhibitory activity entry is “+”. With `Cc1ccc(C(=O)O[C@H](Cc2ccc3ccccc3c2)C(=O)O)cc1C` [Compound H-265], the Pin1 inhibitory activity entry is on record as “+”.

For the molecule `COc1ccc(C(=O)O[C@H](Cc2ccc3ccccc3c2)C(=O)O)cc1OC` [Compound H-266], the Pin1 inhibitory activity result was “+”. For `O=C(O[C@H](Cc1ccc2ccccc2c1)C(=O)O)c1ccc(Cl)c(Cl)c1` [Compound H-269], the Pin1 inhibitory activity result is “+”. The same measure, in the same setting: with `O=C(O[C@H](Cc1ccc2ccccc2c1)C(=O)O)c1ccc(F)c(F)c1` [Compound H-270] the entry was “+”.

Staying with this assay, now noted: cell-based experiment, 293T cells, 100 μM.
As to `O=C(O[C@H](Cc1ccc2ccccc2c1)C(=O)OCc1ccccc1)c1ccc2ccccc2c1` [Compound H-21], the “inhibitory activity on Pin1 (stated in words)” value was “no inhibitory activity on Pin1”. Same read-out and setting: with `O=C(O[C@@H](Cc1ccc2ccccc2c1)C(=O)O)C1c2ccccc2-c2ccccc21` [Compound H-141] the entry was “both have inhibitory activities on Pin1”.

A further assay relates to model animals of ulcerative colitis (3% DSS). Briefly: Therapeutic experiment using model animals of ulcerative colitis (Example 4). Format: in vivo, C57BL6 mice. The note with it: DSS mice, 5-ASA 300 mg/kg/day, Day 7. How it is done:
To C57BL6 mice of 8 weeks old, 3% DSS (dextran sulfate sodium)-containing water or water (control) was administered by allowing the mice to drink it for 7 days. For the mice to which DSS was administered, groups in which 5-ASA (compound name: 5-aminosalicylic acid; generic name: Mesalazine), which is a therapeutic agent for inflammatory bowel diseases, the compound synthesized in Example 2-7 (H-31), or the compound synthesized in Example 2-36 (H-179) was administered, and a group in which no compound was administered were provided. On Day 7 after the beginning of the administration, the body weight of each mouse was measured, and the large intestine was removed from the mouse, followed by carrying out histological study. […] In FIGS. 4(A) and (B), “normal” indicates a case where water was administered, and “DSS” indicates cases where DSS-containing water was administered. “non” indicates a case where no compound was administered, and “5-ASA”, “H-31”, and “H-179” indicate cases where the respective compounds were administered. The dose was as follows: 5-ASA, 300 mg/kg/day; H-31, 1 mg/kg/day; H-179, 1 mg/kg/day. As shown in FIG. 4(A), weight loss due to inflammation of the intestine was found in the cases where DSS was administered.
In the case of `Nc1ccc(O)c(C(=O)O)c1` [Compound 5-ASA, 5-aminosalicylic acid, reference compound], the “tissue damage in the large intestine (stained section)” value (“tissue damage in the large intestine” below) is given as “tissue damage in the large intestine due to DSS was found”.

Still in this assay, the particulars now being: DSS mice, compound 1 mg/kg/day, Day 7.
Consider `O=C(COc1cccc2ccccc12)O[C@H](Cc1ccc2ccccc2c1)C(=O)O` [Compound H-179], for which the “tissue damage in the large intestine” value is “tissue damage in the large intestine was hardly found”.

Staying with this assay, now noted: DSS mice, compound 1 mg/kg/day, Day 7, vs no compound.
As for `O=C(COc1cccc2ccccc12)O[C@H](Cc1ccc2ccccc2c1)C(=O)O` [Compound H-179], the “weight loss (body weight as ratio to body weight before administration)” value is given as “the weight loss was significantly smaller”.

The test system is the same in the next assay. Briefly: Therapeutic experiment using model animals of ulcerative colitis 2 (Example 6). The format is in vivo, C57BL6 mice. The conditions noted are these: DSS mice, 5-ASA 300 mg/kg/day or 150 mg/kg/day.
Experimental: To C57BL6 mice of 8 weeks old, 3% DSS (dextran sulfate sodium)-containing water or water (control) was administered by allowing the mice to drink it for 7 days. […] On Day 7 after the beginning of the administration, the body weight of each mouse was measured, and the large intestine was removed from the mouse, followed by carrying out histological study. […] In addition, an experiment for measuring the colon length was carried out.
With `Nc1ccc(O)c(C(=O)O)c1` [Compound 5-ASA, 5-aminosalicylic acid, reference compound], the “tissue damage in the large intestine” value is “tissue damage in the large intestine due to DSS was found” and the weight loss entry is given as “No significant effect was found”.

The next assay relates to Pin1 protein. The assay is described as follows: Confirmation of Pin1 expression level in the intestinal tract of DSS mice (Example 7). The format is in vivo. The note with it: after 7 days of administration. How it is done: The expression level of Pin1 in the intestinal tract was measured for each mouse subjected to the therapeutic experiment in Example 5.
The present results also support that the compound synthesized in Example 2-7 (H-31) prevents development of ulcerative colitis.
For the molecule `Nc1ccc(O)c(C(=O)O)c1` [Compound 5-ASA, 5-aminosalicylic acid, reference compound], the “increase in the Pin1 protein level in the intestinal tract” value is listed as “could not be ameliorated”.

Another assay concerns mice having induced inflammation of the large intestine.
Assay: not given
The conditions noted are these: oral administration to mice, Non-patent Document 7; cited from earlier work.
For `COc1ccc(-c2cc(C(=O)N[C@H](Cc3ccc4ccccc4c3)C(=O)O)c(C)o2)cc1` [Compound C1, (R)-2-(5-(4-methoxyphenyl)-2-methylfuran-3-carboxamido)-3-(naphthalene-6-yl)propanoic acid], the “development of inflammation of the large intestine” value was “development of the inflammation can be suppressed”.

In the case of `O=C1C=CC(=O)c2c(O)cccc21` [Juglone], the “development of inflammation of the large intestine” value is on record as “development of the inflammation can be suppressed”.
